Where two headings read alike, the source gives them in different places.
Assays:
[1] = biological target: T1, Heteromeric α9-HNARA10 receptors (Homo sapiens, UniProt Q9GZZ6+Q9UGM1); assay: ACh-evoked currents in Xenopus laevis oocytes injected with human α9 and HNARA10 cDNAs; assay type: cell-based; details: for antagonism of ACh responses: α9+HNARA10 receptors
T1 construct: expressed in transfected cells; host or cells: Xenopus laevis oocytes (nuclear injection of cDNA)

homomeric α9 receptors = biological target: T2, homomeric α9 receptors (Homo sapiens, UniProt Q9UGM1); assay type: cell-based
T2 construct: expressed in transfected cells; host or cells: Xenopus laevis oocytes (cDNA injection)

[2] = biological target: human nicotinic acetylcholine receptor α9 subunit (homomeric α9 receptors) (human) (UniProt Q9UGM1); assay: cell-based or functional assay
human nicotinic acetylcholine receptor α9 subunit (homomeric α9 receptors) (human), sequence (Q9UGM1 23-479): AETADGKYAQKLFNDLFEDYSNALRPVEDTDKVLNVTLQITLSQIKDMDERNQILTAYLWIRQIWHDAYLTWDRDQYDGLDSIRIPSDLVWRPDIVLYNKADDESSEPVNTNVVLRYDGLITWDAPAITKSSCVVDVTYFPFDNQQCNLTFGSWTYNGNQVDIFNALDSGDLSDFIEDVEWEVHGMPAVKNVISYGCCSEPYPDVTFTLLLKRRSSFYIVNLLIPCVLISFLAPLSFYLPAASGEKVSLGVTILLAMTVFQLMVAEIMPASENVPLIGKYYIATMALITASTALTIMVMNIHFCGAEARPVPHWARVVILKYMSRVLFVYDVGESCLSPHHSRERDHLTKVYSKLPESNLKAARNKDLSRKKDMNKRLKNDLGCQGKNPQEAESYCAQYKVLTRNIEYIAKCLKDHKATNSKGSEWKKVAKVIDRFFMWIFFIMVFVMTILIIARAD

T2 sequence (Q9UGM1 23-479): as above
T1 sequence (Q9UGM1 23-479): as above
T1 sequence (Q9GZZ6 25-450): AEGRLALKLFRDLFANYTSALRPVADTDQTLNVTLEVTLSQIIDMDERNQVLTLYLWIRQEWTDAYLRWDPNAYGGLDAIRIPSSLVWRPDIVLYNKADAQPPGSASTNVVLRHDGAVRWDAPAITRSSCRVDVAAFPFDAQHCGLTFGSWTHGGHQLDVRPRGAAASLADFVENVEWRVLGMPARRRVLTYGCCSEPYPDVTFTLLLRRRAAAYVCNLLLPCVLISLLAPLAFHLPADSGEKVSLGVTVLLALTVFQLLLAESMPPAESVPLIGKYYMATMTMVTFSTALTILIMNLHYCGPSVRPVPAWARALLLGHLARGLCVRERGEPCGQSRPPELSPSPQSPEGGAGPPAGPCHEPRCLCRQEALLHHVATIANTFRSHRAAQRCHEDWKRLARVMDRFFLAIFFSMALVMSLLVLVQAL

`C[N+]1(C)CCN(c2ccccc2)CC1` [DMPP] was tested, and the agonist response [1] was “did not elicit any response” and the agonist response (homomeric α9 receptors) was “did not elicit any response”.

With `C[N+](C)(C)CCOC(N)=O` [carbachol] the “evoked current (partial agonist)” value ([1]; oocytes expressing the mixture α9-HNARA10, from dose-response curves) was “about 72%”.

In the case of `COc1cc2c3cc1Oc1cc(ccc1O)C[C@@H]1c4c(cc(OC)c(O)c4Oc4ccc(cc4)C[C@@H]3N(C)CC2)CC[N+]1(C)C` [d-tubocurarine], the “antagonism of ACh responses” value [1] is reported as “fully antagonized” and the “antagonism of ACh responses” value (homomeric α9 receptors; α9 receptors) is reported as “fully antagonized”.

With `CO[C@H]1CC=C2CCN3CCC4=C(CC(=O)OC4)[C@]23C1` [dihydro-β-erythroidine] the “antagonism of ACh responses” value [1] was “did not have any effect”.

With `Clc1ccc(C2CC3CCC2N3)cn1` (centres unmarked) [epibatidine] the agonist response ([1]; α9+HNARA10 expressing oocytes) was “did not elicit any response” and the agonist response (homomeric α9 receptors; α9 expressing oocytes) was “did not elicit any response”.

For `CN1CCCC1c1cccnc1` (centres unmarked) [nicotine], the agonist response [1] was “did not elicit any response” and the agonist response (homomeric α9 receptors) was “did not elicit any response”.

“HNARA10 polypeptide (human nicotinic acetylcholine receptor alpha 10 subunit)” gave an amplitude of acetylcholine-evoked currents in Xenopus oocytes, α9-HNARA10 mixture against α9 alone [2] of 100 fold.
